Biological target: T1, GID4 (Uniprot ID: Q81VV7, residues 124-289) (Homo sapiens, UniProt Q8IVV7)
T1 construct: GID4 (Uniprot ID: Q81VV7, residues 124-289)
T1 sequence (Q8IVV7 124-289): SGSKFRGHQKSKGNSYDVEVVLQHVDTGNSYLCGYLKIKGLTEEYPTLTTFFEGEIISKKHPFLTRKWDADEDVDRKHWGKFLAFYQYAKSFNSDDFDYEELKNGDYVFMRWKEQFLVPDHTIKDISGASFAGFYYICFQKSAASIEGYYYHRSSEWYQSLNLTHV
Assay: GID4 competitive binding assay (AlphaScreen, GID4/degron peptide PGLW)
Details: 24 nM GID4, 48 nM biotinylated degron peptide PGLW, 4° C., read-out: IC50 (Inhibition of GID4/Degron binding by test compounds)
Outline: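 Displacement of biotin-tagged degron tetrapeptide PGLW (48 nM) from C-terminally 6His-tagged GID4 124-289 (24 nM) read by AlphaScreen proximity signal. Compound incubation 2 h, then beads 1 h, all at 4 °C, pH 7.5, 2% DMSO final; background-corrected inhibition fitted with variable slope for IC50.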

SMILES	IC50 [nM]
CN(C)[C@H]1C[C@@H](NC(=O)c2csc(-c3cc(O)c4ncccc4c3)c2)C1 [Compound 264, N-(cis-3-(dimethylamino)cyclobutyl)-5-(8-hydroxyquinolin-6-yl)thiophene-3-carboxamide]	< 500
Nc1nc(N2CCOC(c3ccccc3Br)C2)c2[nH]ccc2n1 (single isomer, unassigned) [Compound 46, (R/S)-4-(2-(2-bromophenyl)morpholino)-5H-pyrrolo[3,2-d]pyrimidin-2-amine]	500 to 5000
CN(C)CCNC(=O)c1csc2ccc(-c3ccc4ccnc(N)c4c3)cc12 [Compound 355, 5-(1-aminoisoquinolin-7-yl)-N-(2-(dimethylamino)ethyl)benzo[b]thiophene-3-carboxamide]	500 to 5000
Brc1ccccc1C1CN(c2cc(NC3CC3)ncn2)CCN1 (stereo not drawn) [Compound 79, 6-(3-(2-bromophenyl)piperazin-1-yl)-N-cyclopropylpyrimidin-4-amine]	> 5000
Nc1nc2c(c(N3CCCC(c4ccn[nH]4)C3)n1)CCC2 (stereo not drawn) [Compound 195, 4-(3-(1H-pyrazol-5-yl)piperidin-1-yl)-6,7-dihydro-5H-cyclopenta[d]pyrimidin-2-amine]	> 5000
CN1CC(NC(=O)c2ccc(-c3cc(O)c4ncccc4c3)cc2)C1 [Compound 291, 4-(8-hydroxyquinolin-6-yl)-N-(1-methylazetidin-3-yl)benzamide]	< 500
CC(C)c1cc(N2CCNC(c3cc(N4CC(CO)C4)ccc3Br)C2)nc(N)n1 (single isomer, unassigned) [Compound 30, (R/S)-(1-(3-(4-(2-amino-6-isopropylpyrimidin-4-yl)piperazin-2-yl)-4-bromophenyl)azetidin-3-yl)methanol]	< 500
CC(C)c1cc(N2CCCC(O)(c3ncn4ccccc34)C2)nc(N)n1 (stereo not drawn) [Compound 224, 1-(2-amino-6-isopropylpyrimidin-4-yl)-3-(imidazo[1,5-a]pyridin-1-yl)piperidin-3-ol]	> 5000
CNc1cc(N2CCCC(c3csc4ccccc34)C2)nc(N)n1 (stereo not drawn) [Compound 82, 6-(3-(benzo[b]thiophen-3-yl)piperidin-1-yl)-N4-methylpyrimidine-2,4-diamine]	500 to 5000
CN1CCC(NC(=O)c2cccc(-c3ccc4ccnc(N)c4c3)c2)CC1 [Compound 345, 3-(1-aminoisoquinolin-7-yl)-N-(1-methylpiperidin-4-yl)benzamide]	500 to 5000
CN(C)CCCNC(=O)c1ncc(-c2cc(O)c3ncccc3c2)s1 [Compound 272, N-(3-(dimethylamino)propyl)-5-(8-hydroxyquinolin-6-yl)thiazole-2-carboxamide]	< 500
CC(C)c1cc(N2CCCC(O)(c3ccccc3Br)C2)nc(N)n1 (stereo not drawn) [Compound 236, 1-(2-amino-6-isopropylpyrimidin-4-yl)-3-(2-bromophenyl)piperidin-3-ol]	500 to 5000
c1ccn2c(C3CCCN(c4ccnc5[nH]ccc45)C3)cnc2c1 (stereo not drawn) [Compound 91, 3-(1-(1H-pyrrolo[2,3-b]pyridin-4-yl)piperidin-3-yl)imidazo[1,2-a]pyridine]	< 500
Nc1nccc2ccc(-c3ccc4[nH][nH]c(=O)c4c3)cc12 [Compound 1, 5-(1-aminoisoquinolin-7-yl)-1,2-dihydro-3H-indazol-3-one]	500 to 5000
Nc1nc(N2CCNC(c3ccccc3Br)C2)c2cc[nH]c2n1 (single isomer, unassigned) [Compound 56, (R/S)-4-(3-(2-bromophenyl)piperazin-1-yl)-7H-pyrrolo[2,3-d]pyrimidin-2-amine]	500 to 5000
CN(C)CCCNC(=O)c1nnc(-c2cc(O)c3ncccc3c2)[nH]1 [Compound 262, N-(3-(dimethylamino)propyl)-5-(8-hydroxyquinolin-6-yl)-4H-1,2,4-triazole-3-carboxamide]	< 500
CC(C)c1cc(N2CCNC(c3cc(C(F)(F)F)ccc3Br)C2)nc(N)n1 (single isomer, unassigned) [Compound 13, (R/S)-4-(3-(2-bromo-5-(trifluoromethyl)phenyl)piperazin-1-yl)-6-isopropylpyrimidin-2-amine]	< 500
Cn1nccc1-c1cc(N2CC3CCC(C2)N3)nc2c(-c3cc[nH]n3)nccc12 [Compound 364, 2-(3,8-diazabicyclo[3.2.1]octan-3-yl)-4-(1-methyl-1H-pyrazol-5-yl)-8-(1H-pyrazol-3-yl)-1,7-naphthyridine]	> 5000
CC(C)c1cc(N2CCCC(c3nn(C)c4ccccc34)C2)nc(N)n1 (stereo not drawn) [Compound 232, 4-isopropyl-6-(3-(1-methyl-1H-indazol-3-yl)piperidin-1-yl)pyrimidin-2-amine]	500 to 5000
Cc1nc(N)nc(N2CCCC(c3ccn[nH]3)C2)c1Br (stereo not drawn) [Compound 216, 4-(3-(1H-pyrazol-5-yl)piperidin-1-yl)-5-bromo-6-methylpyrimidin-2-amine]	> 5000

SMILES	IC50 [nM]
CN(C)CCCC(=O)N1CC=C(c2cc(O)c3ncccc3c2)CC1 [Compound 309, 4-(dimethylamino)-1-(4-(8-hydroxyquinolin-6-yl)-3,6-dihydropyridin-1(2H)-yl)butan-1-one]	500 to 5000
CN1CCC(NC(=O)c2ccc(-c3cc(O)c4ncccc4c3)cc2)CC1 [Compound 297, 4-(8-hydroxyquinolin-6-yl)-N-(1-methylpiperidin-4-yl)benzamide]	< 500
Cc1c(-c2ccc(Br)c([C@H]3CN(c4cc(N)nc(N)n4)CCN3)c2)cnn1C (racemic) [Compound 5, (S/R)-6-(3-(2-bromo-5-(1,5-dimethyl-1H-pyrazol-4-yl)phenyl)piperazin-1-yl)pyrimidine-2,4-diamine]	< 500
CNc1nc(C(C)C)cc(N2CCNC(c3ccccc3Br)C2)n1 (single isomer, unassigned) [Compound 152, (R/S)-4-(3-(2-bromophenyl)piperazin-1-yl)-6-isopropyl-N-methylpyrimidin-2-amine]	500 to 5000
Nc1nc(C2CC2)cc(N2CCNC(c3cnc4ccccn34)C2)n1 (single isomer, unassigned) [Compound 104, (R/S)-4-cyclopropyl-6-(3-(imidazo[1,2-a]pyridin-3-yl)piperazin-1-yl)pyrimidin-2-amine]	> 5000
Nc1cc(N2CCCC(F)(c3ccccc3Br)C2)nc(N)n1 (stereo not drawn) [Compound 228, 6-(3-(2-bromophenyl)-3-fluoropiperidin-1-yl)pyrimidine-2,4-diamine]	500 to 5000
CN(C)CCCNC(=O)c1cc(Cl)c(-c2cc(O)c3ncccc3c2)cc1Cl [Compound 322, 2,5-dichloro-N-(3-(dimethylamino)propyl)-4-(8-hydroxyquinolin-6-yl)benzamide]	< 500
Nc1nc(N2CCCC(c3ccn[nH]3)C2)c2[nH]ccc2n1 (stereo not drawn) [Compound 206, 4-(3-(1H-pyrazol-5-yl)piperidin-1-yl)-5H-pyrrolo[3,2-d]pyrimidin-2-amine]	> 5000
Nc1nc(C2CCC2)cc(N2CCCC(c3ccn[nH]3)C2)n1 (stereo not drawn) [Compound 212, 4-(3-(1H-pyrazol-5-yl)piperidin-1-yl)-6-cyclobutylpyrimidin-2-amine]	> 5000
Nc1nccc2ccc(-c3ccc4[nH]nc(C(=O)NC[C@H]5CC[C@@H](O)CC5)c4c3)cc12 [Compound 333, 5-(1-aminoisoquinolin-7-yl)-N-((cis-4-hydroxycyclohexyl)methyl)-1H-indazole-3-carboxamide]	< 500
Nc1cc(N2CCOC(c3cnc4ccccn34)C2)nc(N)n1 (single isomer, unassigned) [Compound 137, (S/R)-6-(2-(imidazo[1,2-a]pyridin-3-yl)morpholino)pyrimidine-2,4-diamine]	> 5000
CN1CCN(c2ccc(Br)c(C3CN(c4cc(N)nc(N)n4)CCN3)c2)CC1 (single isomer, unassigned) [Compound 51, R or S 6-(3-(2-bromo-5-(4-methylpiperazin-1-yl)phenyl)piperazin-1-yl)pyrimidine-2,4-diamine]	500 to 5000
CNc1cc(N2CCCC(c3ncc4ccccn34)C2)nc(N)n1 (stereo not drawn) [Compound 94, 6-(3-(imidazo[1,5-a]pyridin-3-yl)piperidin-1-yl)-N4-methylpyrimidine-2,4-diamine]	> 5000
CN(C)CCCNC(=O)CN1CC=C(c2cc(O)c3ncccc3c2)CC1 [Compound 307, N-(3-(dimethylamino)propyl)-2-(4-(8-hydroxyquinolin-6-yl)-3,6-dihydropyridin-1(2H)-yl)acetamide]	< 500
CC(C)c1cc(N2CC[C@@H](F)[C@@H](c3ncn4ccccc34)C2)nc(N)n1 (racemic) [Compound 229, 4-((3R,4R)-4-fluoro-3-(imidazo[1,5-a]pyridin-1-yl)piperidin-1-yl)-6-isopropylpyrimidin-2-amine]	> 5000
CNc1cc(N2CCCC(c3cnc4ccccn34)C2)nc(NC)n1 (racemic) [Compound 123, (S/R)-6-(3-(imidazo[1,2-a]pyridin-3-yl)piperidin-1-yl)-N2,N4-dimethylpyrimidine-2,4-diamine]	500 to 5000
CC(C)c1cc(N2CCCNC(c3ccccc3Br)C2)nc(N)n1 (stereo not drawn) [Compound 220, 4-(3-(2-bromophenyl)-1,4-diazepan-1-yl)-6-isopropylpyrimidin-2-amine]	500 to 5000
CNc1nc(N)cc(N2CCNC(c3ccccc3Br)C2)n1 (single isomer, unassigned) [Compound 113, (R/S)-6-(3-(2-bromophenyl)piperazin-1-yl)-N2-methylpyrimidine-2,4-diamine]	500 to 5000
CNC(=O)CCC1CCCN(c2nc(N)nc3c2CCCN3)C1 (stereo not drawn) [Compound 140, 3-(1-(2-amino-5,6,7,8-tetrahydropyrido[2,3-d]pyrimidin-4-yl)piperidin-3-yl)-N-methylpropanamide]	500 to 5000

From US20240132464A1, “HETEROCYCLIC COMPOUNDS AS E3 LIGASE INHIBITORS” (Accutar Biotechnology Inc., priority 2022, published 2024)
